Experimental data as given in patent US20090042869A1, “SIGNAL-DEPENDENT SPLICING OF TISSUE FACTOR PRE-mRNA IN [sequence] CELLS” (UNIVERSITY OF UTAH RESEARCH FOUNDATION, priority 2007, published 2009).
One block for each compound: values may come before it.

Columns and labels:
TF pre-mRNA [1] = experiment: TF pre-mRNA splicing in platelets of subjects receiving medication; assay type: in vivo, human; details: for signal-dependent TF pre-mRNA splicing: in the elderly; for impact on TF pre-mRNA splicing: subjects receiving the drug
IL-1β pre-mRNA = IL-1β pre-mRNA splicing in platelets of subjects receiving medication; assay type: in vivo, human; details: in young subjects
Clk1 = Clk1 (Homo sapiens, UniProt P49759); experiment: Immune complex kinase assay for Clk1 activity in platelets (SF2/ASF substrate); assay type: cell-based; details: stimulated platelets (fibrinogen + thrombin), pretreated; vs vehicle
TF pre-mRNA [2] = experiment: TF pre-mRNA splicing in activated platelets (PCR); assay type: cell-based, human; details: platelets adherent to fibrinogen, coactivated with thrombin 2 h
Text: CD34+ stem cells were isolated from human umbilical cord blood and were differentiated into megakaryocytes that produce proplatelets using methods that we have previously described^18. Leukocyte-depleted human platelets were isolated from healthy volunteers using previously described methods^18,29. For all of the platelet studies, residual leukocytes were removed from the washed preparations by CD45+ bead selection as previously described^1. […] Platelets were resuspended in M199 serum-free culture medium^1,2. Platelets were left quiescent or allowed to adhere to immobilized human fibrinogen (Calbiochem) in the presence of thrombin (0.05 U/ml; Sigma-Aldrich). Select studies were also conducted with suspended platelets that were activated with ADP, collagen, or thrombin. […] For translational inhibition, platelets were isolated and preincubated for 2 h in the presence of vehicle (water) or puromycin as previously described^2. For most of the TF pre-mRNA studies, primers that targeted sequences in exon four ([NT] ID NO: 1) and five ([NT] ID NO: 2), and thus spanned intron four, were used to determine endogenous splicing of TF pre-mRNA in platelets. Indirect in situ hybridization or direct in situ PCR was used to detect TF pre-mRNA in megakaryocytes and platelets as previously described^18. Primers that detected alternatively spliced human […] used as previously described^3. […]

TF protein = TF protein expression in platelets and platelet-derived microparticles (Western blot); assay type: cell-based, human; details: activated platelets, 30 min or 4 h
Text: (§1) CD34+ stem cells were isolated from human umbilical cord blood and were differentiated into megakaryocytes that produce proplatelets using methods that we have previously described^18. Leukocyte-depleted human platelets were isolated from healthy volunteers using previously described methods^18,29. For all of the platelet studies, residual leukocytes were removed from the washed preparations by CD45+ bead selection as previously described^1. […] Platelets were resuspended in M199 serum-free culture medium^1,2. Platelets were left quiescent or allowed to adhere to immobilized human fibrinogen (Calbiochem) in the presence of thrombin (0.05 U/ml; Sigma-Aldrich). Select studies were also conducted with suspended platelets that were activated with ADP, collagen, or thrombin. […] For translational inhibition, platelets were isolated and preincubated for 2 h in the presence of vehicle (water) or puromycin as previously described^2.
Detailed strategies for protein detection by flow cytometry, Western blot analysis, and immunocytochemistry have been previously published^18,29. A polyclonal antibody against human TF (pAb CL 20150A; Affinity Biologicals) was used under nonreducing conditions to detect TF protein by Western analysis. […] For the in situ experiments, polymerized actin was detected with Alexa fluor 488 phalloidin (Molecular Probes). […]

activated platelets = experiment: TF-dependent procoagulant activity (Actichrome TF assay); assay type: cell-based, human; details: stimulated platelets (fibrinogen + thrombin)
Text: as §1
TF-dependent procoagulant activity was calculated with an Actichrome TF assay (American Diagnostica) as previously described^13. […] Intact cellular membranes and microparticles were immediately placed in 25 μl of kit assay buffer and TF-dependent procoagulant activity was calculated. […]

human plasma = experiment: Plasma clot formation with membranes from activated platelets; assay type: cell-based; details: membranes of platelets activated 5 min or 2 h
Method: FIG. 5F illustrates clot formation in plasma that is incubated with membranes isolated from quiescent platelets or platelets activated with fibrinogen and thrombin for 5 min (left) or 2 h (right). The white bars represent activated platelets that were incubated with a neutralizing antibody directed against tissue factor (Anti-TF). The data in FIGS. 5D, 5E, an 5F represent the mean±SEM of six independent experiments.
FIG. 8B is a western blot analysis showing TF protein expression in platelets and platelet-derived microparticles. […] Recombinant TF was used as a positive control. FIG. 8C depicts TF-dependent procoagulant activity in freshly isolated platelets or platelets activated, as in FIG. 2B, in the presence or absence of the Clk inhibitor. […] A single asterisk (*) indicates a statistically significant difference (P<0.05) in TF-dependent procoagulant activity between freshly isolated (baseline) and activated platelets; the double asterisk (**) represents a significant difference (P<0.05) between activated platelets under untreated or treated conditions. […] The activated platelets were pretreated with either the Clk inhibitor (Clk Inh) or DMSO. The data represent the mean±SEM of five independent experiments. […]
Therefore, the affect of platelet-derived TF on plasma clotting times was determined. […]

platelets = experiment: Other platelet functional responses (immunocytochemistry); assay type: cell-based, human; details: fibrinogen + thrombin, 1 h
Method: After 1 h, the cells were prepared for immunocytochemical detection (red staining) of Clk1 (top) or β-tubulin (bottom). The green stain in each panel identifies polymerized actin.
Detailed strategies for protein detection by flow cytometry, Western blot analysis, and immunocytochemistry have been previously published^18,29. A polyclonal antibody against human TF (pAb CL 20150A; Affinity Biologicals) was used under nonreducing conditions to detect TF protein by Western analysis. Antibodies directed against TF (mAb 550252; BD Biosciences), Clk family members (Abgent), or β-tubulin (Sigma-Aldrich) were used for immunocytochemical studies. For the in situ experiments, polymerized actin was detected with Alexa fluor 488 phalloidin (Molecular Probes). Specificity was confirmed by parallel studies with nonimmune IgG or deletion of the primary antibody. Detailed strategies for protein detection by Western analysis and immunocytochemistry have been previously published^1,2. Flow cytometric analysis of surface-expressed CD14, CD45, and CD162 (PSGL-1) was performed on washed platelet preparations before and after CD45 depletion, on CD45 positively selected cells, and on purified monocytes (FIG. 1).

mClk3 = mClk3 (Mus musculus, UniProt O35492); details: cited from earlier work
SRPK1 = SRPK1 (Homo sapiens, UniProt Q96SB4); details: at concentrations up to 1 μM; cited from earlier work
SRPK2 = SRPK2 (Homo sapiens, UniProt P78362); details: at concentrations up to 1 μM; cited from earlier work
PKA = details: at concentrations up to 1 μM; cited from earlier work
PKC = details: at concentrations up to 1 μM; cited from earlier work

Sequence of mClk3 (O35492 whole entry): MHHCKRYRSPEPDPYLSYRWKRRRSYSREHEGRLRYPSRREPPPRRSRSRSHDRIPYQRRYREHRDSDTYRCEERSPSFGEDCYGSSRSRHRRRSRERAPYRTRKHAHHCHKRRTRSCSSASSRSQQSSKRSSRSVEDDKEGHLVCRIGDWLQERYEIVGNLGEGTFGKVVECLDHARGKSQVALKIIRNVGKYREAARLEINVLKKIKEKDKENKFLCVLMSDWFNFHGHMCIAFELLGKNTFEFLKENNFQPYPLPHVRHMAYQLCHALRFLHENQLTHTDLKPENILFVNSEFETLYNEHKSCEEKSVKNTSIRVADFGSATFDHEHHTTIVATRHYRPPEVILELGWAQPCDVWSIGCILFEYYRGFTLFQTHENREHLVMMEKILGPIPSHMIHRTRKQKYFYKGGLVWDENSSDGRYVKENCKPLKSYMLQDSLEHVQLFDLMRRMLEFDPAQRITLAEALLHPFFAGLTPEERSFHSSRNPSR
Sequence of SRPK2 (P78362 whole entry, species assumed): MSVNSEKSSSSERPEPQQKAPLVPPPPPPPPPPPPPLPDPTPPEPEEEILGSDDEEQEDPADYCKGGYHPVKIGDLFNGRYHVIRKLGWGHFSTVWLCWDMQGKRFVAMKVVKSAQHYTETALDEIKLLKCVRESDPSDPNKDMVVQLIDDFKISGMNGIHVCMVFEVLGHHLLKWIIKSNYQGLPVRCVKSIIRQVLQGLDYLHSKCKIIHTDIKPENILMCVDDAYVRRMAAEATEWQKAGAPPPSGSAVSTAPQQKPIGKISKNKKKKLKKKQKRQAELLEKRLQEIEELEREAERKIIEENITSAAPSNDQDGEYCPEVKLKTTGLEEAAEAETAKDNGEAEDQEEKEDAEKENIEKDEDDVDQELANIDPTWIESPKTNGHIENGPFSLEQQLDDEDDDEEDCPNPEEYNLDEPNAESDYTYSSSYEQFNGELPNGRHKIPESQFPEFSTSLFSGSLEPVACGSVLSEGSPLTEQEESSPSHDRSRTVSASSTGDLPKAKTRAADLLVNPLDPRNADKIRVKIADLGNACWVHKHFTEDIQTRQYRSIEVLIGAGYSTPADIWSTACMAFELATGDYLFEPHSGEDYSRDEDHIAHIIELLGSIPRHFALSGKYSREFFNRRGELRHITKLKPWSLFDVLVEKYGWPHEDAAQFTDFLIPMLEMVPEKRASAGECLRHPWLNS
Sequence of SRPK1 (Q96SB4 whole entry, species assumed): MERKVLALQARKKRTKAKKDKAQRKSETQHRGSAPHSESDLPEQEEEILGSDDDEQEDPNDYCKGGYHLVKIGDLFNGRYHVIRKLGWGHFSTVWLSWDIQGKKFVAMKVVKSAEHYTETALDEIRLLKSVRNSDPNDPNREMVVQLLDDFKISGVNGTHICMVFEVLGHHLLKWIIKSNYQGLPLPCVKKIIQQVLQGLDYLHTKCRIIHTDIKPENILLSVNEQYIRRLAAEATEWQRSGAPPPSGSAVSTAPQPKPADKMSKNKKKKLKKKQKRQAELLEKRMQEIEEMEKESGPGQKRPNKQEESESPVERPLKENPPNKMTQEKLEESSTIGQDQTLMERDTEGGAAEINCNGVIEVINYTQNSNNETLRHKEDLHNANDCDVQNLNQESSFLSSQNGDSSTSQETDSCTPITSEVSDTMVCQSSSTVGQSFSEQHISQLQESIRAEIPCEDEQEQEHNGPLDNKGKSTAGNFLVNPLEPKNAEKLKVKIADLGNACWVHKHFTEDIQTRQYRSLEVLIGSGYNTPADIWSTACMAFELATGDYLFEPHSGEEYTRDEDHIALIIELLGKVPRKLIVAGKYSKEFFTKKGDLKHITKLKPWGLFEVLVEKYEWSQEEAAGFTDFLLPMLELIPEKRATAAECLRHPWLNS
Sequence of Clk1 (P49759 whole entry): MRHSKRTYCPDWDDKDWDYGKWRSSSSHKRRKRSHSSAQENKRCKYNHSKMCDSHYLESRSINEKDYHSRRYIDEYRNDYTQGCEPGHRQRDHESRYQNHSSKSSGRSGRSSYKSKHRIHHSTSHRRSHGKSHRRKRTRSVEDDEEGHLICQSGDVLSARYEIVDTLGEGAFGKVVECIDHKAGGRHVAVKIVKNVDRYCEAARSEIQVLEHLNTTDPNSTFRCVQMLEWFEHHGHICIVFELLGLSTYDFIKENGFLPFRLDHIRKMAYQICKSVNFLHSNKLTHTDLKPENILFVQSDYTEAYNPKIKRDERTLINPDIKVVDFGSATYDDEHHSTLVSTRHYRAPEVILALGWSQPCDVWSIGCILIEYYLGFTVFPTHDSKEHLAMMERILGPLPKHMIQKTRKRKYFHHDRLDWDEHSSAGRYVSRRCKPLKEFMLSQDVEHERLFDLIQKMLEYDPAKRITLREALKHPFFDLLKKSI

Compound: heparin
signal-dependent TF pre-mRNA splicing (TF pre-mRNA [1]): do not block
impact on TF pre-mRNA splicing (TF pre-mRNA [1]): do not appear to have a significant impact
IL-1β pre-mRNA splicing (IL-1β pre-mRNA): do not block

Compound: CC(=O)Oc1ccccc1C(=O)O [aspirin]
signal-dependent TF pre-mRNA splicing (TF pre-mRNA [1]): do not block
impact on TF pre-mRNA splicing (TF pre-mRNA [1]): do not appear to have a significant impact
IL-1β pre-mRNA splicing (IL-1β pre-mRNA): do not block

Clk1-dependent SF2/ASF phosphorylation (Clk1): suppressed
Compound: CCN1/C(=C/C(C)=O)Sc2ccc(OC)cc21 [Tg003, (Z)-1-(3-Ethyl-5-methoxy-2,3-dihydrobenzothiazol-2-ylidene)propan-2-one]
processing of TF pre-mRNA (TF pre-mRNA [2]): prevented
expression of TF protein (TF protein): blocked
TF-dependent procoagulant activity (activated platelets): significantly (P<0.05) reduced
onset of plasma clot formation (human plasma): delayed
other platelet functional responses (adherence and spreading, actin polymerization, tubulin organization, Clk1 redistribution) (platelets): no effect
IC50 (mClk3): > 10 µM
effect on activity of SRPK1 (SRPK1): does not affect
effect on activity of SRPK2 (SRPK2): does not affect
effect on activity of PKA (PKA): does not affect
effect on activity of PKC (PKC): does not affect

Compound: COc1ccc(C[C@H](N)C(=O)N[C@H]2[C@@H](O)[C@H](n3cnc4c(N(C)C)ncnc43)O[C@@H]2CO)cc1 [Puromycin]
TF-dependent procoagulant activity (activated platelets): significantly (P<0.05) reduced
